Assay results reported in ChEMBL document CHEMBL1201862, “PubChem BioAssay data set” (2004).
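A five-concentration, 48-hour dose response in 96-well plates underlies each endpoint, interpolated linearly between surrounding concentrations. GI50: concentration for 50% inhibition of growth.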 Active and inactive are the calls of the source. Cut-off read from the data, not from the text of the source: active = GI50 up to about 1.1 µM and inactive = higher.

Tests used:
Assay in all cases: DTP human tumour cell line panel, 48 h
[1] = tested on: NCI-H522
[2] = tested on: SNB-75
[3] = tested on: CCRF-CEM
[4] = tested on: SF-268
[5] = tested on: TK-10
[6] = tested on: UACC-257
[7] = tested on: UO-31
[8] = tested on: RPMI-8226
[9] = tested on: SR
[10] = tested on: MOLT-4
[11] = tested on: RXF 393
[12] = tested on: SNB-19
[13] = tested on: SW-620
[14] = tested on: HCT-116
[15] = tested on: LOX IMVI
[16] = tested on: DU-145
[17] = tested on: HCT-15
[18] = tested on: U-251
[19] = tested on: MDA-MB-435
[20] = tested on: SK-MEL-28
[21] = tested on: NCI-H23
[22] = tested on: Hs-578T
[23] = tested on: A549
[24] = tested on: Malme-3M
[25] = tested on: HCC 2998
[26] = tested on: A498
[27] = tested on: T47D
[28] = tested on: SK-MEL-5
[29] = tested on: OVCAR-5
[30] = tested on: SF-295
[31] = tested on: NCI/ADR-RES
[32] = tested on: SK-OV-3
[33] = tested on: MDA-N
[34] = tested on: MDA-MB-231
[35] = tested on: CAKI-1
[36] = tested on: OVCAR-8
[37] = tested on: COLO 205
[38] = tested on: SN12C
[39] = tested on: IGROV-1
[40] = tested on: M14
[41] = tested on: OVCAR-4
[42] = tested on: 786-0
[43] = tested on: SF-539
[44] = tested on: HOP-92
[45] = tested on: HT-29
[46] = tested on: NCI-H226
[47] = tested on: K562
[48] = tested on: HL-60
[49] = tested on: EKVX
[50] = tested on: NCI-H460
[51] = tested on: ACHN
[52] = tested on: KM12
[53] = tested on: MCF7
[54] = tested on: SK-MEL-2
[55] = tested on: BT-549
[56] = tested on: PC-3
[57] = tested on: OVCAR-3
[58] = tested on: HOP-62
[59] = tested on: UACC-62

In the case of `O=C1NC(=S)NC1C(Cc1ccccc1)c1ccco1` (configuration not stated), the GI50 [1] is reported as > 100 µM (inactive), the GI50 [2] is reported as > 100 µM (inactive) and the GI50 [3] is reported as 68.2 µM (inactive). The GI50 [4] was > 100 µM (inactive), the GI50 [5] was > 100 µM (inactive) and the GI50 [6] was > 100 µM (inactive). The GI50 [7] was > 100 µM (inactive), the GI50 [8] was 84.9 µM (inactive) and the GI50 [9] was 75.3 µM (inactive). For the same compound, the GI50 [10] was 81.7 µM (inactive), the GI50 [11] was > 100 µM (inactive) and the GI50 [12] was > 100 µM (inactive). For the same compound, the GI50 [13] was > 100 µM (inactive), the GI50 [14] was > 100 µM (inactive) and the GI50 [15] was > 100 µM (inactive). For the same compound, the GI50 [16] was > 100 µM (inactive), the GI50 [17] was over 100 µM and the GI50 [18] was > 100 µM (inactive). For the same compound, the GI50 [19] was > 100 µM (inactive), the GI50 [20] was > 100 µM (inactive) and the GI50 [21] was > 100 µM (inactive). For the same compound, the GI50 [22] was > 100 µM (inactive), the GI50 [23] was > 100 µM (inactive) and the GI50 [24] was > 100 µM (inactive). For the same compound, the GI50 [25] was > 100 µM (inactive), the GI50 [26] was > 100 µM (inactive) and the GI50 [27] was > 100 µM (inactive). For the same compound, the GI50 [28] was > 100 µM (inactive), the GI50 [29] was > 100 µM (inactive) and the GI50 [30] was > 100 µM (inactive). For the same compound, the GI50 [31] was > 100 µM (inactive), the GI50 [32] was > 100 µM (inactive) and the GI50 [33] was > 100 µM (inactive). The GI50 [34] was > 100 µM (inactive), the GI50 [35] was > 100 µM (inactive) and the GI50 [36] was > 100 µM (inactive). For the same compound, the GI50 [37] was > 100 µM (inactive), the GI50 [38] was > 100 µM (inactive) and the GI50 [39] was > 100 µM (inactive). For the same compound, the GI50 [40] was > 100 µM (inactive), the GI50 [41] was > 100 µM (inactive) and the GI50 [42] was > 100 µM (inactive). The GI50 [43] was > 100 µM (inactive), the GI50 [44] was > 100 µM (inactive) and the GI50 [45] was > 100 µM (inactive). For the same compound, the GI50 [46] was > 100 µM (inactive), the GI50 [47] was 83.4 µM (inactive) and the GI50 [48] was 39.6 µM (inactive). For the same compound, the GI50 [49] was > 100 µM (inactive), the GI50 [50] was > 100 µM (inactive) and the GI50 [51] was > 100 µM (inactive). The GI50 [52] was > 100 µM (inactive) and the GI50 [53] was 6.76 µM (inactive).

`O=C(O)c1nc2ccc(C(F)(F)F)cc2nc1Nc1ccc(Cl)c(Cl)c1` was tested, and the GI50 [1] was 2.95 µM (inactive), the GI50 [2] was 13.2 µM (inactive) and the GI50 [54] was 2.31 µM (inactive). The GI50 [55] was 2.62 µM (inactive), the GI50 [56] was 4.58 µM (inactive) and the GI50 [4] was 4.46 µM (inactive). The GI50 [5] was 20 µM (inactive), the GI50 [6] was 29.2 µM (inactive) and the GI50 [7] was 4.48 µM (inactive). For the same compound, the GI50 [9] was 4.15 µM (inactive), the GI50 [10] was 4.37 µM (inactive) and the GI50 [11] was 13.4 µM (inactive). For the same compound, the GI50 [57] was 6.37 µM (inactive), the GI50 [12] was 2.16 µM (inactive) and the GI50 [13] was 8.15 µM (inactive). For the same compound, the GI50 [14] was 5.12 µM (inactive), the GI50 [15] was 9.82 µM (inactive) and the GI50 [16] was 9.68 µM (inactive). The GI50 [17] was 8.97 µM, the GI50 [58] was 7.85 µM (inactive) and the GI50 [18] was 3.93 µM (inactive). The GI50 [19] was 5.74 µM (inactive), the GI50 [20] was 13 µM (inactive) and the GI50 [21] was 4.17 µM (inactive). For the same compound, the GI50 [22] was 18.4 µM (inactive), the GI50 [59] was 2.3 µM (inactive) and the GI50 [24] was 13.3 µM (inactive). The GI50 [25] was 4.99 µM (inactive), the GI50 [26] was 13.6 µM (inactive) and the GI50 [28] was 10.6 µM (inactive). For the same compound, the GI50 [29] was 14.4 µM (inactive), the GI50 [30] was 4.36 µM (inactive) and the GI50 [31] was 5.96 µM (inactive). For the same compound, the GI50 [33] was 6.73 µM (inactive), the GI50 [34] was 6.05 µM (inactive) and the GI50 [35] was 15.5 µM (inactive). The GI50 [36] was 4.91 µM (inactive), the GI50 [37] was 11.6 µM (inactive) and the GI50 [38] was 7.67 µM (inactive). The GI50 [39] was 12.8 µM (inactive), the GI50 [41] was 6.98 µM (inactive) and the GI50 [42] was 10.5 µM (inactive). The GI50 [45] was 9.16 µM (inactive), the GI50 [46] was 10.6 µM (inactive) and the GI50 [47] was 3.66 µM (inactive). The GI50 [48] was 5.62 µM (inactive), the GI50 [49] was 7.26 µM (inactive) and the GI50 [50] was 7.41 µM (inactive). For the same compound, the GI50 [51] was 7.67 µM (inactive), the GI50 [52] was 6.98 µM (inactive) and the GI50 [53] was 14.3 µM (inactive).

`COC(=O)C1Cc2c([nH]c3ccccc23)-c2[nH]c3ccccc3c2CC(NC(C)=O)C(=O)NCC(=O)N1` (configuration not stated) was tested, and the GI50 [1] was > 100 µM (inactive), the GI50 [2] was > 100 µM (inactive) and the GI50 [54] was > 100 µM (inactive). For the same compound, the GI50 [56] was > 100 µM (inactive), the GI50 [3] was > 100 µM (inactive) and the GI50 [4] was > 100 µM (inactive). The GI50 [5] was > 100 µM (inactive), the GI50 [6] was > 100 µM (inactive) and the GI50 [7] was > 100 µM (inactive). For the same compound, the GI50 [8] was > 100 µM (inactive), the GI50 [10] was > 100 µM (inactive) and the GI50 [11] was > 100 µM (inactive). For the same compound, the GI50 [57] was > 100 µM (inactive), the GI50 [12] was > 100 µM (inactive) and the GI50 [13] was > 100 µM (inactive). The GI50 [14] was > 100 µM (inactive), the GI50 [15] was > 100 µM (inactive) and the GI50 [16] was > 100 µM (inactive). The GI50 [17] was over 100 µM, the GI50 [58] was > 100 µM (inactive) and the GI50 [18] was > 100 µM (inactive). The GI50 [19] was > 100 µM (inactive), the GI50 [20] was > 100 µM (inactive) and the GI50 [21] was > 100 µM (inactive). For the same compound, the GI50 [22] was > 100 µM (inactive), the GI50 [59] was > 100 µM (inactive) and the GI50 [23] was > 100 µM (inactive). The GI50 [25] was > 100 µM (inactive), the GI50 [27] was > 100 µM (inactive) and the GI50 [28] was > 100 µM (inactive). The GI50 [29] was > 100 µM (inactive), the GI50 [30] was > 100 µM (inactive) and the GI50 [31] was > 100 µM (inactive). For the same compound, the GI50 [32] was > 100 µM (inactive), the GI50 [33] was > 100 µM (inactive) and the GI50 [34] was > 100 µM (inactive). The GI50 [35] was > 100 µM (inactive), the GI50 [36] was > 100 µM (inactive) and the GI50 [37] was > 100 µM (inactive). The GI50 [38] was > 100 µM (inactive), the GI50 [39] was 0.914 µM (active) and the GI50 [41] was > 100 µM (inactive). For the same compound, the GI50 [42] was > 100 µM (inactive), the GI50 [43] was > 100 µM (inactive) and the GI50 [44] was 77.4 µM (inactive). For the same compound, the GI50 [45] was > 100 µM (inactive), the GI50 [46] was > 100 µM (inactive) and the GI50 [47] was > 100 µM (inactive). For the same compound, the GI50 [49] was > 100 µM (inactive), the GI50 [50] was > 100 µM (inactive) and the GI50 [51] was > 100 µM (inactive). For the same compound, the GI50 [52] was > 100 µM (inactive) and the GI50 [53] was > 100 µM (inactive).
